Reference: patent publication US9920383B2, “Active substances for increasing the stress defense in plants to abiotic stress, and methods of finding them” (Bayer Intellectual Property GMBH, priority 2005, dated 2018)

Legend:
Format in all cases: in vivo, maize cv. Lorenzo
maize plants [1] = test: Drought stress experiment with maize plants, seed dressing with active substance; conditions: for Relative dry matter [%]: relative to control group 2 (−S/−D)
Procedure: Maize seeds cv. Lorenzo were dressed with the compound 4-cyclopropylamino-carbonyl-N-(2-methoxybenzoyl)benzenesulfonamide (=VIII-3). To this end, 10 g of seeds were incubated with 20 mg of active substance dissolved in 2 ml of methylene chloride, with gentle shaking, until the solvent had evaporated (approx. 30 minutes). The seeds of the control group were only dressed with solvent. Thereafter, the treated seeds were placed into pots with compost (diameter 10 cm, in each case 10 seeds per pot), and the maize seedlings were raised for 10 days in a controlled-environment chamber under defined light, moisture and temperature conditions [white light, long day (16 hours light, 8 hours dark), 70% atmospheric humidity, 24° C.]. In each case 2×10 pots were used for the control groups and for the drought stress experiment. While the plants were raised, they were watered from below for 20 minutes every 2 days by raising the water level in a tray. 10 days after the seeds had germinated, the maize plants were exposed to the drought stress. To this end, the plants of control group 1 (without dressing with active substance) and of the test group (with dressing with active substance) were only irrigated every 7 days as described above. In the case of the plants of control group 2 (without dressing with active substance) and of the test group 2 (with dressing with active substance), the normal irrigation regime was reclaimed. After 3 weeks of drought stress conditions, the experiment was evaluated as follows. The aerial plant parts were cut off and dried overnight at 50° C. On the next day, the foliar biomass was determined in [g] (dry matter) per pot.
The data were averaged over the in each case 10 pots of the plant group. The numerical values shown in table 1 are relative values in [%] relative to the data obtained with the control group 2 (without dressing with active substance, normal irrigation regime).

maize plants [2] = test: Chill-stress experiment (greenhouse) with maize plants, pre-emergence treatment; conditions: for Number of damaged plants (chloroses): chill stress 6 h at −2° C, 20 plants per group
Source text: Maize seeds cv. Lorenzo were sown into 10-cm-pots into compost at a rate of 10 seeds per pot. All experimental groups consisted of in each case 4 pots. The sown seeds of test groups 1 and 2 were sprayed pre-emergence with 50 and 100 [g a.i./ha], respectively, of the compound 4-cyclopropylaminocarbonyl-N-(2-methoxybenzoyl)benzenesulfonamide (=VIII-3). The seeds of the control group remained untreated. The plants were raised under controlled conditions in a controlled-environment chamber [white light (long day: 16 h light, 8 h dark), 22° C. day-time temperature, 14° C. night-time temperature, 60% atmospheric humidity].
After germination, when the plants had attained a length of approx. 1 cm, 2 pots from each group were incubated for 6 h in a different controlled-environment chamber under chill-stress conditions at −2° C. Thereafter, these plants were returned to the others in the first controlled-environment chamber.
To evaluate the experiment quantitatively, the plants with chloroses of the leaf tips were counted. The total number of the plants per test group and cold stress treatment was 20, provided over 2 pots in each case.

[3] = tested on: Zm.11840.1.A1_at: putative N-carbamyl-L-amino acid amidohydrolase; test: Gene expression profiling (maize genome array), heat stress; conditions: vs unstressed solvent-dressed control
Procedure: (§1) Maize seeds cv. Lorenzo were dressed as described in example 1 with the compound VIII-3 (=4-cyclopropylaminocarbonyl-N-(2-methoxybenzoyl)benzenesulfonamide) or with solvent. The plants were raised for 10 days in a controlled-environment chamber (conditions: see example 1).
(§2) Thereafter, the plants were exposed to the following stress conditions: • (1) Heat stress: 6 h at 45° C. • (2) Drought stress: 7 days without irrigation, 24° C.
(§3) The control plants of the specific experimental group were kept under the standard conditions described in example 1 (temperature, irrigation).
(§4) After the stress treatment, the leaves of the stressed plants and of the unstressed control plants were harvested, shock-frozen in liquid nitrogen and stored at −80° C. until processed. All experiments were carried out in replications of in each case 2 pots.
(§5) The labeled RNA probes for the DNA chip hybridization were prepared as described in the protocols (Expression Analysis. Technical Manual) from Affymetrix (Affymetrix Inc., 3380 Central Expressway, Santa Clara, Calif., USA). First, total RNA was isolated from in each case 500 mg of the harvested leaves. In each case 10 μg of total RNA were used for the cDNA first- and second-strand synthesis. The cDNA was amplified with T7 polymerase and simultaneously labeled with biotin-UTP. In each case 20 μg of this biotinylated […] were employed for the hybridization of the maize genome array from Affymetrix. This DNA microarray contains DNA sequences whose totality represents 13339 genes. Thereafter, the DNA microarrays were washed in the Affymetrix Fluidics Station, stained with streptavidin/phycoerythrin (Molecular Probes, P/N S-866) and scanned with the appropriate Agilent Laser Scanner (Agilent Gene Array Scanner). The fluorescence data obtained were analyzed using Affymetrix's Microarray Suite 5 software. After the quality assurance had been performed, all DNA chip analyses were stored in a database. To determine relevant expression values (induction factors, repression factors), the absolute expression values of the genes from the respective stress experiments were compared with the values of the respective control experiments (i.e. without abiotic stress and solvent-dressing only), based on the scoring function predetermined by the Affymetrix software. The resulting 4 expression values per gene were averaged by calculating the median value. These median values are shown in the results tables as induction factors. Similarity comparisons of expression profiles of various experiments and cluster analyses were carried out using the “genedata expressionist” software from Genedata (Genedata, Maulbeerstr. 46, CH-4016 Basel, Switzerland).
(§6) The analysis of the expression profiles specifically searched for genes which are induced by the test substances only in conjunction with abiotic stress, but not by the substances or by stress alone. Such genes can be considered as indicators for additional anti-stress effects of the substances which exceed the known safener effect. The induction patterns of the indicator genes described permit the targeted finding of active substances for increasing the abiotic stress tolerance in crop plants. • a) Under heat stress conditions, i.e. the tested maize plants (dressed with 2 mg a.i. 4-cyclopropylaminocarbonyl-N-(2-methoxybenzoyl)benzenesulfonamide/g seeds) were exposed to a temperature of 45° C. for 6 hours 7 days after germination.
(§7) • Condition A: heat stress (6 hours, 45° C.) • Condition B: Seeds dressed with 4-cyclopropylaminocarbonyl-N-(2-methoxybenzoyl)benzenesulfonamide (VIII-3)/NO heat stress • Condition C: Seeds dressed with 4-cyclopropylaminocarbonyl-N-(2-methoxybenzoyl)benzenesulfonamide (VIII-3)+heat stress (6 hours, 45° C.).

[4] = tested on: Zm.13498.1.S1_at: membrane protein; test: as above; conditions: vs unstressed solvent-dressed control
Procedure: as §1, §2, §3, §4, §5, §6, §7

[5] = tested on: Zm.3040.1.S1_at uricase II (E.C.1.7.3.3); nodule specific uricase; test: as above; conditions: vs unstressed solvent-dressed control
Procedure: as §1, §2, §3, §4, §5, §6, §7

[6] = seeds dressed with VIII-3 (2 mg a.i./g seeds), NO heat stress
[7] = seeds dressed with VIII-3 + heat stress (6 hours, 45° C.)

In the case of `COc1ccccc1C(=O)NS(=O)(=O)c1ccc(C(=O)NC2CC2)cc1` [VIII-3, 4-cyclopropylaminocarbonyl-N-(2-methoxybenzoyl)benzenesulfonamide], the “Relative dry matter [%]” value (maize plants [1]; +S/+D: seeds dressed (20 mg per 10 g seeds), 3 weeks drought stress) is reported as 80%, the “Relative dry matter [%]” value (maize plants [1]; +S/−D: seeds dressed, normal irrigation (no drought stress)) is reported as 100% and the “average foliar biomass (dry matter) over the undressed control plant” value (maize plants [1]; under drought stress (control group 1 vs test group 1)) is reported as “significantly increased”. For the same compound, the “Number of damaged plants (chloroses)” value (maize plants [2]; 50 g a.i./ha pre-emergence) was 1, the “Number of damaged plants (chloroses)” value (maize plants [2]; 100 g a.i./ha pre-emergence) was 0 and the “occurrence of chill stress damage symptoms” value (maize plants [2]; at the higher dosage rate) was “completely prevents”. For the same compound, the “chloroses at the leaf tips after chill stress” value (maize plants [2]; plants treated with the active substance, 24 hours after chill stress) was “either absent or only very weakly pronounced”, the “plants showing damage symptoms” value (maize plants [2]; test groups kept exclusively under standard conditions without chill stress) was “None” and the “damage symptoms which are the result of chill stress” value (maize plants [2]; treatment with the active substance (lower dosage rate)) was “markedly reduce”. For the same compound, the “induction factor Zm.11840.1.A1_at, Condition B” value [3, 6] was 1.75, the “induction factor Zm.11840.1.A1_at, Condition C” value [3, 7] was 4.10 and the “induction factor Zm.13498.1.S1_at, Condition B” value [4, 6] was 1.73. For the same compound, the “induction factor Zm.13498.1.S1_at, Condition C” value [4, 7] was 4.45, the “induction factor Zm.3040.1.S1_at, Condition B” value [5, 6] was 1.33 and the “induction factor Zm.3040.1.S1_at, Condition C” value [5, 7] was 2.48.
